Data reported in patent publication US7786079B2, “Substituted nonadepsipeptides” (priority 2004, dated 2010).
*1 amine or outer side, *2 acyl side, *3 side chain or, on linkers, in order; H or OH if unused. Where a SMILES comes first, the peptide text is derived from it. Bridges are numbered along the chain shown (N, C = ends). Side-chain parts run from the residue outwards. [ ]: non-standard residue; d: D form. The star is where a group is joined. X1 = NC(=O)[C@@H](OC(=O)c1ccc(N2CCOCC2)nc1)[C@H](N[*:1])C(=O)[*:2]; Phe(3R-OH) = O=C([C@@H](N[*:1])[C@H](O[*:3])c1ccccc1)[*:2]; X2 = NC(=O)[C@@H](OC(=O)Nc1ccccc1)[C@H](N[*:1])C(=O)[*:2]; NH(4-morpholinophenyl) = c1cc(N2CCOCC2)ccc1N*; Asn(3S-OH) = NC(=O)[C@@H](O)[C@H](N)C(=O)O; Leu(3R-OH) = CC(C)[C@@H](O)[C@H](N)C(=O)O; aThr = C[C@H](O)[C@H](N)C(=O)O; CO = O=C([*:1])[*:2]

Legend:
[1] = test system: E. faecium L4001; assay type: cell-based
Method: (§1) Determination of the Minimum Inhibitory Concentration (MIC): The MIC is determined in the liquid dilution test in accordance with the NCCLS guidelines. […] The cultures are incubated at 37° C. for 18-24 hours, S. pneumoniae in the presence of 10% CO2. The lowest substance concentration in each case at which no visible bacterial growth occurs any more is defined as the MIC. The MIC values are reported in μg/ml.

[2] = test system: Staphylococcus aureus 133; assay type: cell-based
Method: as §1

[3] = test system: Streptococcus pneumoniae G9a; assay type: cell-based
Method: as §1

[4] = test system: E. faecalis ICB 27159; assay type: cell-based, Entercococcus faecalis
Method: as §1

| Compound | MIC E. faecium L4001 [1] | MIC S. aureus 133 [2] | MIC S. pneumoniae G9a [3] | MIC E. faecalis ICB 27159 [4] |
| --- | --- | --- | --- | --- |
| CC[C@H](C)[C@@H]1NC(=O)[C@@H](CCCNC(=N)N)NC(=O)[C@H](CC(C)C)NC(=O)[C@H]([C@H](O)C(C)C)NC(=O)[C@@H](NC(=O)[C@H](CC(C)C)NC(=O)[C@H](N)CC(C)C)[C@@H](c2ccccc2)OC(=O)[C@H](CO)NC(=O)[C@H]([C@H](OC(=O)c2ccc(N3CCOCC3)nc2)C(N)=O)NC(=O)CNC(=O)[C@H]([C@H](C)O)NC1=O.O=C(O)C(F)(F)F.O=C(O)C(F)(F)F [Example 17] (H-[dL]L[Phe(3R-OH)][Leu(3R-OH)]L[dR]I[aThr]G[X1]S; ester 3-C) | 4 µg/mL | 0.5 µg/mL | 0.5 µg/mL | 2 µg/mL |
| CC[C@H](C)[C@@H]1NC(=O)[C@@H](CCCNC(=N)N)NC(=O)[C@H](CC(C)C)NC(=O)[C@H]([C@H](O)C(C)C)NC(=O)[C@@H](NC(=O)[C@H](CC(C)C)NC(=O)[C@H](N)CC(C)C)[C@@H](c2ccccc2)OC(=O)[C@H](CO)NC(=O)[C@H]([C@H](OC(=O)Nc2ccccc2)C(N)=O)NC(=O)CNC(=O)[C@H]([C@H](C)O)NC1=O.O=C(O)C(F)(F)F.O=C(O)C(F)(F)F [Example 2] (H-[dL]L[Phe(3R-OH)][Leu(3R-OH)]L[dR]I[aThr]G[X2]S; ester 3-C) | 4 µg/mL | 0.5 µg/mL | 1 µg/mL | 1 µg/mL |
| CC[C@H](C)[C@@H]1NC(=O)[C@@H](CCCNC(=N)NC(=O)Nc2ccc(N3CCOCC3)cc2)NC(=O)[C@H](CC(C)C)NC(=O)[C@H]([C@H](O)C(C)C)NC(=O)[C@@H](NC(=O)[C@H](CC(C)C)NC(=O)[C@H](N)CC(C)C)[C@@H](c2ccccc2)OC(=O)[C@H](CO)NC(=O)[C@H]([C@H](O)C(N)=O)NC(=O)CNC(=O)[C@H]([C@H](C)O)NC1=O.O=C(O)C(F)(F)F [Example 11] (H-[dL]L[Phe(3R-OH)][Leu(3R-OH)]L[dR]([CO-NH(4-morpholinophenyl)])I[aThr]G[Asn(3S-OH)]S; ester 3-C) | 1 µg/mL | 0.5 µg/mL | 0.5 µg/mL | 0.5 µg/mL |
